Test results: patent US20240140986A1, “SYNTHETIC URSOLIC ACID DERIVATIVES AND METHODS OF USE THEREOF” (REATA PHARMACEUTICALS, INC., priority 2021, published 2024)
Read-outs that look alike come from different tables or passages of the source.

Tests used:
[1] = test system: IFNγ-induced NO production in RAW 264.7 cells; assay: Nitric Oxide Suppression Assay (IFNγ-induced NO, Griess nitrite readout); format: cell-based, mouse; details: for IC50: Mus musculus; for Avg NO IC50 Relative to RTA402 (fold): Table 2, ratio to RTA402
Procedure: Tissue Culture: RAW 264.7, a mouse macrophage cell line, was obtained from American Type Culture Collection (Manassas VA) and maintained in the log phase of growth in Roswell Park Memorial Institute Medium 1640 (RPMI 1640) supplemented with 10% heat inactivated fetal bovine serum and 1% penicillin-streptomycin. Cells were cultured and maintained in a humidified incubator at 37° C. under 5% C02. Cells were sub-cultured every 2-4 days. All cell culture supplies were obtained from Life Technologies (Grand Island, NY) and VWR (Radnor, PA).
Nitric Oxide Suppression Assay. RAW 264.7 cells were plated 1 day in advance of experimental treatments at a concentration of 30,000 cells per well onto Falcon-96 well clear bottom plates (Corning, NY) in a total volume of 200 μL per well using RPMI 1640 supplemented with 0.5% fetal bovine serum and 1% penicillin-streptomycin. The next day, cells were pretreated with compounds serially diluted from 1000×stocks. All compounds were dissolved in dimethyl sulfoxide (DMSO) usually at 10 mM stock solutions. Compounds were subsequently diluted in DMSO and RPMI 1640. Each well received a final concentration of 0.1% DMSO. Cells were pretreated for 2 hours and incubation at 37° C., followed by treatment with 20 ng/mL of interferon gamma (R&D Systems, Minneapolis, MN) per well for 24 hours. The next day, a nitrite standard was serially diluted from 100 μM to 1.6 μM in RPMI 1640. Afterwards, 50 μL of cell culture supernatant was transferred from each well into a new Falcon-96 well clear bottom plate. Nitrite was measured as surrogate for nitric oxide using Promega's Griess Detection Kit #G2930 (Madison, WI) which involves the addition of 50 μL of the provided sulfanilamide solution to each well of the transferred cell culture supernatant and standards, followed by a 10-minute incubation at room temperature. Next, 50 μL of the provided N-1-napthylethylenediamine dihydrochloride (NED) solution was added to the sulfanilamide reaction and incubated for 10 minutes at room temperature in the dark. Afterwards, air bubbles were removed using ethanol vapor and absorbance was measured using a Spectramax M2e plate reader with a wavelength set to 525 nm. Viability was assessed using WST-1 cell proliferation reagent from Roche (Basel, Switzerland). After media was removed for the Nitric Oxide suppression assay, 15 μL of WST-1 reagent was added to each well of cells. Plates were briefly mixed on an orbital shaker and the cells were incubated at 37° C. for 30-90 minutes. Absorbance was measured using a Spectramax M2e plate reader with wavelengths set to 440 nm and 700 nm.
For the ability of compounds to suppress the increase in nitric oxide release caused by interferon gamma, the absolute amount of nitrite that was produced in each well was extrapolated from the nitrite standards using a linear regression fit. All values were then normalized to the DMSO-interferon gamma treated wells and plotted as percent nitric oxide. IC50 values were calculated using Excel and/or GraphPad Prism (San Diego, CA).

[2] = test system: Nrf2 / ARE-dependent luciferase in AREc32 reporter cell line; assay: AREc32 luciferase reporter activation (Nrf2 induction); format: cell-based, human; details: for EC (2-fold): Homo sapiens, Arec32; for Relative Avg AREc32 EC2X Relative to RTA402 (fold): ratio to RTA402
Procedure: Effect on Ludferase Reporter Activation. Nrf2 is a transcription factor that binds to the antioxidant response element (ARE) sequence in the promoter regions of its target genes. AREc32 reporter cell line (derived from human breast carcinoma MCF7 cells) was obtained was from CXR Bioscience Limited (Dundee, UK) and cultured in DMEM (low glucose) supplemented with 10% FBS, 1% penicillin/streptomycin, and 0.8 mg/ml Geneticin (G418). This cell line is stably transfected with a luciferase reporter gene under the transcriptional control of eight copies of the rat GSTA2 ARE sequence (5′-GTGACAAAGCA-3′) (Wang et al., 2006). Expression of Firefly luciferase from this reporter plasmid is controlled by binding of Nrf2 to these ARE sequences. Measurement of ARE-dependent luciferase activity allows quantitative assessment of Nrf2 induction. AREc32 cell line has previously been used in studies characterizing different Nrf2 activators (Dinkova-Kostova & Wang, 2011; Roubalová et al., 2016; Roubalová et al, 2017; Wu et al, 2012).
The effect of several compounds disclosed herein on luciferase reporter activation was assessed in the AREc32 reporter cell line (see Table 10 and Table 11). This cell line is derived from human breast carcinoma MCF-7 cells and is stably transfected with a luciferase reporter gene under the transcriptional control of eight copies of the antioxidant response element from the rat Gsta2 gene, an Nrf2 target gene (Frilling et al., 1990). AREc32 cells were plated in black 96-well plates in 200 μL media at 20,000 cells per well. Twenty-four hours after plating, cells were treated with vehicle (DMSO) or test compounds at concentrations ranging from 0.03 to 1000 nM for nineteen hours. Media was removed and 100 μL of 1:1 mixture of the One-Glo Luciferase assay reagent and culture medium was added to each well. After incubation for 5 min at room temperature, the luminescence signal was measured on a PHERAstar plate reader. The EC2X value was determined using Excel and GraphPad Prism software. The fold increase in luminescence signal for cells treated with each concentration of compound relative to cells treated with vehicle was determined and a dose-response curve was generated. The dose-response curve was fit using nonlinear regression analysis and used to extrapolate the EC2X value. The EC2X value is defined as the concentration of test compound required to increase the luminescence signal 2-fold above levels in vehicle-treated samples.

[3] = RAW264.7, Table 2, RAW 264.7 cells, 2 h pretreatment, 20 ng/mL interferon gamma 24 h, read-out: Avg NO IC50 (nM) (Mean ± SD)
[4] = RAW264.7, Table 3, ursolic acid derivatives, read-out: Avg NO IC50 (nM) (Mean ± SD)
[5] = Table 2, concentration increasing luminescence 2-fold above vehicle, 19 h treatment, read-out: Avg AREc32 EC2X (nM) (Mean ± SD)
[6] = Table 3, ursolic acid derivatives, read-out: Avg ARE EC-2X (nM) (Mean ± SD)
[7] = RAW264.7, Table 3, oleanolic acid derivative analogs, read-out: Avg NO IC50
[8] = Table 3, oleanolic acid derivative analogs, read-out: Avg ARE EC-2X

Structure (SMILES) | IC50 [1, 3] [nM] | IC50 [1, 4] [nM] | Avg NO IC50 Relative to RTA402 (fold) [1] | EC (2-fold) [2, 5] [nM] | EC (2-fold) [2, 6] [nM] | Relative Avg AREc32 EC2X Relative to RTA402 (fold) ([2]; Table 2) | IC50 [1, 7] [nM] | EC (2-fold) [2, 8] [nM]
C[C@@H]1[C@H]2[C@H]3C(=O)C=C4[C@@]5(C)C=C(C#N)C(=O)C(C)(C)[C@@H]5CC[C@@]4(C)[C@]3(C)CC[C@@]2(c2nc(CO)no2)CC[C@H]1C [Compound T10] | 2.08 ± 0.14 | 2.08 ± 0.14 | 1.45 ± 0.28 fold | 2.4 ± 0.3 | 2.4 ± 0.3 | 0.193 ± 0.024 | – | –
C[C@@H]1[C@H]2[C@H]3C(=O)C=C4[C@@]5(C)C=C(C#N)C(=O)C(C)(C)[C@@H]5CC[C@@]4(C)[C@]3(C)CC[C@@]2(c2nc(CF)no2)CC[C@H]1C [Compound T11] | 4.33 ± 1.45 | – | 2.10 ± 0.49 fold | 8.74 ± 2.61 | – | 0.685 ± 0.050 | – | –
C[C@@H]1[C@H]2[C@H]3C(=O)C=C4[C@@]5(C)C=C(C#N)C(=O)C(C)(C)[C@@H]5CC[C@@]4(C)[C@]3(C)CC[C@@]2(CN2CCN(C)C2=O)CC[C@H]1C [Compound T44] | 5.53 ± 1.8 | 5.5 ± 1.8 | 2.03 ± 0.67 fold | 5.73 ± 1.79 | 5.73 ± 1.79 | 0.53 ± 0.13 | – | –
CONC(=O)[C@]12CC[C@@H](C)[C@H](C)[C@H]1[C@H]1C(=O)C=C3[C@@]4(C)C=C(C#N)C(=O)C(C)(C)[C@@H]4CC[C@@]3(C)[C@]1(C)CC2 [Compound T73] | 23.1 ± 6.6 | – | 7.02 ± 1.96 fold | 7.93 ± 0.82 | – | 0.681 ± 0.159 | – | –
C[C@@H]1[C@H]2[C@H]3C(=O)C[C@@H]4[C@@]5(C)C=C(C#N)C(=O)C(C)(C)[C@@H]5CC[C@@]4(C)[C@]3(C)CC[C@@]2(CCC(=O)N2CCC2)CC[C@H]1C [Compound T105] | 52.4 ± 13.8 | – | 36.7 ± 17^ fold | 103 ± 37 | – | 10.7 ± 3.3 | – | –
CC1(C)CC[C@]2(CNC(=O)OC(C)(C)C)CC[C@]3(C)[C@H](C(=O)C=C4[C@@]5(C)C=C(C#N)C(=O)C(C)(C)[C@@H]5CC[C@]43C)[C@@H]2C1 [CC20, reference compound] | – | – | – | – | – | – | 5 | 21.1
[2H]C([2H])([2H])C(=O)NC[C@]12CCC(C)(C)C[C@H]1[C@H]1C(=O)C=C3[C@@]4(C)C=C(C#N)C(=O)C(C)(C)[C@@H]4CC[C@@]3(C)[C@]1(C)CC2 [CC24, reference compound] | – | – | – | – | – | – | 0.5 | 2.96
CN1CCN(C[C@]23CCC(C)(C)C[C@H]2[C@H]2C(=O)C=C4[C@@]5(C)C=C(C#N)C(=O)C(C)(C)[C@@H]5CC[C@@]4(C)[C@]2(C)CC3)C1=O [CC44, reference compound] | – | – | – | – | – | – | 1.2 | 6.07
C[C@@H]1[C@H]2[C@H]3C(=O)C=C4[C@@]5(C)C=C(C#N)C(=O)C(C)(C)[C@@H]5CC[C@@]4(C)[C@]3(C)CC[C@@]2(n2cnnn2)CC[C@H]1C [Compound T61] | 12.5 ± 7.3 | – | 4.11 ± 0.26 fold | 7.53 ± 2.25 | – | 0.601 ± 0.122 | – | –
C[C@@H]1[C@H]2[C@H]3C(=O)C=C4[C@@]5(C)C6O[C@@]6(C#N)C(=O)C(C)(C)[C@@H]5CC[C@@]4(C)[C@]3(C)CC[C@@]2(CNC(=O)C2CC2)CC[C@H]1C (some centres unmarked) [Compound T98] | 15.2 ± 4.3 | – | 4.45 ± 1.25 fold | 6.85 ± 0.51 | – | 0.574 ± 0.052 | – | –
C[C@@H]1[C@H]2[C@H]3C(=O)C=C4[C@@]5(C)C=C(C#N)C(=O)C(C)(C)[C@@H]5CC[C@@]4(C)[C@]3(C)CC[C@@]2(c2nc(CCO)no2)CC[C@H]1C [Compound T5] | 1.81 ± 0.331 | – | 1.24 ± 0.13 fold | 2.4 ± 0.75 | – | 0.224 ± 0.196 | – | –
C[C@@H]1[C@H]2[C@H]3C(=O)C=C4[C@@]5(C)C=C(C#N)C(=O)C(C)(C)[C@@H]5CC[C@@]4(C)[C@]3(C)CC[C@@]2(N2CCOC2=O)CC[C@H]1C [Compound T59] | 16 ± 5 | 16 ± 5 | 5.03 ± 1.61 fold | 15.4 ± 1.2 | 15.4 ± 1.2 | 1.23 ± 0.26 | – | –
CN(C)Cc1noc([C@]23CCC(C)(C)C[C@H]2[C@H]2C(=O)C=C4[C@@]5(C)C=C(C#N)C(=O)C(C)(C)[C@@H]5CC[C@@]4(C)[C@]2(C)CC3)n1 [CC8, reference compound] | – | – | – | – | – | – | 3.3 | 3.72
C[C@@H]1[C@H]2[C@H]3C(=O)C=C4[C@@]5(C)C=C(C#N)C(=O)C(C)(C)[C@@H]5CC[C@@]4(C)[C@]3(C)CC[C@@]2(C(=O)NO)CC[C@H]1C [Compound T72] | 36.1 ± 13.8 | – | 20.20 ± 5.71 fold | 17.2 ± 7 | – | 1.71 ± 0.33 | – | –
CC(=O)NC[C@]12CC[C@@H](C)[C@H](C)[C@H]1[C@H]1C(=O)C=C3[C@@]4(C)C=C(C#N)C(=O)C(C)(C)[C@@H]4CC[C@@]3(C)[C@]1(C)CC2 [Compound T22] | 3.58 ± 2.16 | – | 0.94 ± 0.14 fold | 2.99 ± 1.62 | – | 0.244 ± 0.080 | – | –
CNC(=O)CC[C@]12CC[C@@H](C)[C@H](C)[C@H]1[C@H]1C(=O)C[C@@H]3[C@@]4(C)C=C(C#N)C(=O)C(C)(C)[C@@H]4CC[C@@]3(C)[C@]1(C)CC2 [Compound T104] | 19.1 ± 4.9 | – | 12.6 ± 1.9 fold | 29.5 ± 2.5 | – | 3.15 ± 0.64 | – | –
C[C@@H]1[C@H]2[C@H]3C(=O)C=C4[C@@]5(C)C=C(C#N)C(=O)C(C)(C)[C@@H]5CC[C@@]4(C)[C@]3(C)CC[C@@]2(CN2NCCC2=O)CC[C@H]1C [Compound T54] | 6.42 ± 1.07 | 6.42 ± 1.07 | 1.84 ± 0.45 fold | 4.92 ± 1.14 | 4.92 ± 1.14 | 0.403 ± 0.103 | – | –
